In ChEMBL document CHEMBL3232857, “Selective and potent morpholinone inhibitors of the MDM2-p53 protein-protein interaction” (J Med Chem, 2014):
One block for each compound: values may come before it.

Key:
Hepatocyte [1] = test: (§1) Intrinsic clearance in human hepatocytes measured per 10^6 cells; format: ADME, cell-based
Hepatocyte [2] = test: (§2) Intrinsic clearance in rat hepatocytes measured per 10^6 cells; format: ADME, cell-based
Hepatocyte [3] = test: (§3) Intrinsic clearance in mouse hepatocytes measured per 10^6 cells; format: ADME, cell-based
[4] = Intrinsic clearance in dog hepatocytes measured per 10^6 cells; format: ADME, cell-based, Canis lupus familiaris, Hepatocyte
[5] = as §1; format: ADME, cell-based, Hepatocyte; details: read-out: CLH
[6] = Clearance in rat at 0.5 mg/kg, iv; format: ADME, organism-based; parameters: dose 0.5 mg/kg, route intravenous; details: in vivo
[7] = Half life in rat at 0.5 mg/kg, iv; format: ADME, organism-based; parameters: dose 0.5 mg/kg, route intravenous; details: in vivo
[8] = as §2; format: ADME, cell-based, Hepatocyte; details: read-out: CLH
[9] = as §3; format: ADME, cell-based, Hepatocyte; details: read-out: CLH
[10] = (§4) Drug metabolism in mouse hepatocytes assessed as (2S,3S,4S,5R,6S)-6-(2-((2R,5R,6R)-4-((S)-2-(tert-butylsulfonyl)-1-cyclopropylethyl)-6-(3-chlorophenyl)-5-(4-chlorophenyl)-3-oxomorpholin-2-yl)acetoxy)-3,4,5-trihydroxytetrahydro-2H-pyran-2-carboxylic acid formation at 10 uM by LC-MS/MS analysis; format: ADME, cell-based, Hepatocyte
[11] = Drug metabolism in rat hepatocytes assessed as (2S,3S,4S,5R,6S)-6-(2-((2R,5R,6R)-4-((S)-2-(tert-butylsulfonyl)-1-cyclopropylethyl)-6-(3-chlorophenyl)-5-(4-chlorophenyl)-3-oxomorpholin-2-yl)acetoxy)-3,4,5-trihydroxytetrahydro-2H-pyran-2-carboxylic acid formation at 10 uM by LC-MS/MS analysis; format: ADME, cell-based, Hepatocyte
[12] = Drug metabolism in dog hepatocytes assessed as (2S,3S,4S,5R,6S)-6-(2-((2R,5R,6R)-4-((S)-2-(tert-butylsulfonyl)-1-cyclopropylethyl)-6-(3-chlorophenyl)-5-(4-chlorophenyl)-3-oxomorpholin-2-yl)acetoxy)-3,4,5-trihydroxytetrahydro-2H-pyran-2-carboxylic acid formation at 10 uM by LC-MS/MS analysis; format: ADME, cell-based, Canis lupus familiaris, Hepatocyte
[13] = as §4, with “cynomolgus monkey” for “mouse”; format: ADME, cell-based, Macaca fascicularis, Hepatocyte
[14] = Drug metabolism in human hepatocytes assessed as (2S,3S,4S,5R,6S)-6-(2-((2R,5R,6R)-4-((S)-2-(tert-butylsulfonyl)-1-cyclopropylethyl)-6-(3-chlorophenyl)-5-(4-chlorophenyl)-3-oxomorpholin-2-yl)acetoxy)-3,4,5-trihydroxytetrahydro-2H-pyran-2-carboxylic acid formation at 10 uM by LC-MS/MS analysis; format: ADME, cell-based, Hepatocyte
[15] = Drug metabolism in mouse hepatocytes assessed as 2-((2R,5R,6R)-6-(3-chlorophenyl)-5-(4-chlorophenyl)-4-((S)-1-cyclopropyl-2-(1-hydroxy-2-methylpropan-2-ylsulfonyl)ethyl)-3-oxomorpholin-2-yl)acetic acid formation at 10 uM by LC-MS/MS analysis; format: ADME, cell-based, Hepatocyte
[16] = Drug metabolism in rat hepatocytes assessed as 2-((2R,5R,6R)-6-(3-chlorophenyl)-5-(4-chlorophenyl)-4-((S)-1-cyclopropyl-2-(1-hydroxy-2-methylpropan-2-ylsulfonyl)ethyl)-3-oxomorpholin-2-yl)acetic acid formation at 10 uM by LC-MS/MS analysis; format: ADME, cell-based, Hepatocyte
[17] = Drug metabolism in dog hepatocytes assessed as 2-((2R,5R,6R)-6-(3-chlorophenyl)-5-(4-chlorophenyl)-4-((S)-1-cyclopropyl-2-(1-hydroxy-2-methylpropan-2-ylsulfonyl)ethyl)-3-oxomorpholin-2-yl)acetic acid formation at 10 uM by LC-MS/MS analysis; format: ADME, cell-based, Canis lupus familiaris, Hepatocyte
[18] = Drug metabolism in cynomolgus monkey hepatocytes assessed as 2-((2R,5R,6R)-6-(3-chlorophenyl)-5-(4-chlorophenyl)-4-((S)-1-cyclopropyl-2-(1-hydroxy-2-methylpropan-2-ylsulfonyl)ethyl)-3-oxomorpholin-2-yl)acetic acid formation at 10 uM by LC-MS/MS analysis; format: ADME, cell-based, Macaca fascicularis, Hepatocyte
[19] = Drug metabolism in human hepatocytes assessed as 2-((2R,5R,6R)-6-(3-chlorophenyl)-5-(4-chlorophenyl)-4-((S)-1-cyclopropyl-2-(1-hydroxy-2-methylpropan-2-ylsulfonyl)ethyl)-3-oxomorpholin-2-yl)acetic acid formation at 10 uM by LC-MS/MS analysis; format: ADME, cell-based, Hepatocyte

SMILES: CC[C@@H](CS(=O)(=O)C(C)(C)C)N1C(=O)[C@@](C)(CC(=O)O)C[C@H](c2cccc(Cl)c2)[C@H]1c1ccc(Cl)cc1
hepatocyte CLint (Hepatocyte [1]): 15 µL/min/1e6 cells
hepatocyte CLint (Hepatocyte [2]): 6.7 µL/min/1e6 cells
hepatocyte CLint (Hepatocyte [3]): 18 µL/min/1e6 cells
hepatocyte CLint [4]: 68 µL/min/1e6 cells

SMILES: CC[C@@H](CN(c1ccccc1)S(=O)(=O)C1CC1)N1C(=O)[C@@H](CC(=O)O)O[C@H](c2cccc(Cl)c2)[C@H]1c1ccc(Cl)cc1
hepatocyte CLint [5]: 3.3 µL/min/1e6 cells

SMILES: CC[C@@H](CN(c1ccccc1F)S(=O)(=O)C1CC1)N1C(=O)[C@@H](CC(=O)O)O[C@H](c2cccc(Cl)c2)[C@H]1c1ccc(Cl)cc1
hepatocyte CLint [5]: < 0.1 µL/min/1e6 cells

SMILES: CC[C@@H](CN(c1ccc(F)cc1)S(=O)(=O)C1CC1)N1C(=O)[C@@H](CC(=O)O)O[C@H](c2cccc(Cl)c2)[C@H]1c1ccc(Cl)cc1
hepatocyte CLint [5]: 7 µL/min/1e6 cells

SMILES: CC[C@@H](CN(c1ccc(F)cc1F)S(=O)(=O)C1CC1)N1C(=O)[C@@H](CC(=O)O)O[C@H](c2cccc(Cl)c2)[C@H]1c1ccc(Cl)cc1
hepatocyte CLint [5]: 4.8 µL/min/1e6 cells

SMILES: CC[C@@H](CN(c1ccccc1F)S(=O)(=O)C(C)C)N1C(=O)[C@@H](CC(=O)O)O[C@H](c2cccc(Cl)c2)[C@H]1c1ccc(Cl)cc1
hepatocyte CLint [5]: 15 µL/min/1e6 cells

SMILES: CC[C@@H](CN(c1ccccc1F)S(C)(=O)=O)N1C(=O)[C@@H](CC(=O)O)O[C@H](c2cccc(Cl)c2)[C@H]1c1ccc(Cl)cc1
hepatocyte CLint [5]: 4.7 µL/min/1e6 cells

SMILES: C[C@@H](CS(=O)(=O)C(C)(C)C)N1C(=O)[C@@H](CC(=O)O)O[C@H](c2cccc(Cl)c2)[C@H]1c1ccc(Cl)cc1
hepatocyte CLint [5]: 0.7 µL/min/1e6 cells

SMILES: CC(C)(C)S(=O)(=O)C[C@H](CC(F)(F)F)N1C(=O)[C@@H](CC(=O)O)O[C@H](c2cccc(Cl)c2)[C@H]1c1ccc(Cl)cc1
hepatocyte CLint [5]: 4.7 µL/min/1e6 cells
clearance [6]: 7.17 mL/min/kg
half-life [7]: 240 min

SMILES: CC(C)[C@@H](CS(=O)(=O)C(C)(C)C)N1C(=O)[C@@H](CC(=O)O)O[C@H](c2cccc(Cl)c2)[C@H]1c1ccc(Cl)cc1
hepatocyte CLint [5]: 1.7 µL/min/1e6 cells
clearance [6]: 1.83 mL/min/kg
half-life [7]: 360 min

SMILES: CC(C)(C)[C@@H](CS(=O)(=O)C(C)(C)C)N1C(=O)[C@@H](CC(=O)O)O[C@H](c2cccc(Cl)c2)[C@H]1c1ccc(Cl)cc1
hepatocyte CLint [5]: 2.1 µL/min/1e6 cells

The next lines start with results.

hepatocyte CLint [5]: 2.1 µL/min/1e6 cells
SMILES: CC[C@@H](CS(=O)(=O)C(C)C)N1C(=O)[C@@H](CC(=O)O)O[C@H](c2cccc(Cl)c2)[C@H]1c1ccc(Cl)cc1

hepatocyte CLint [5]: 1.9 µL/min/1e6 cells
hepatocyte CLint (Hepatocyte [2]): 1.8 µL/min/1e6 cells
hepatocyte CLint (Hepatocyte [3]): 12 µL/min/1e6 cells
hepatocyte CLint [4]: 15.5 µL/min/1e6 cells
clearance [6]: 3.83 mL/min/kg
half-life [7]: 246 min
SMILES: CC[C@@H](CS(=O)(=O)C(C)(C)C)N1C(=O)[C@@H](CC(=O)O)O[C@H](c2cccc(Cl)c2)[C@H]1c1ccc(Cl)cc1

hepatocyte CLint [5]: 8.6 µL/min/1e6 cells
SMILES: CC[C@@H](CS(=O)(=O)CC(C)(C)C)N1C(=O)[C@@H](CC(=O)O)O[C@H](c2cccc(Cl)c2)[C@H]1c1ccc(Cl)cc1

hepatocyte CLint [5]: 12 µL/min/1e6 cells
SMILES: CC[C@@H](CS(=O)(=O)C1CCCC1)N1C(=O)[C@@H](CC(=O)O)O[C@H](c2cccc(Cl)c2)[C@H]1c1ccc(Cl)cc1

hepatocyte CLint [5]: 10 µL/min/1e6 cells
SMILES: CC[C@@H](CS(=O)(=O)c1ccccc1)N1C(=O)[C@@H](CC(=O)O)O[C@H](c2cccc(Cl)c2)[C@H]1c1ccc(Cl)cc1

hepatocyte CLint [5]: 19 µL/min/1e6 cells
SMILES: CC[C@@H](CS(=O)(=O)N(C)C)N1C(=O)[C@@H](CC(=O)O)O[C@H](c2cccc(Cl)c2)[C@H]1c1ccc(Cl)cc1

hepatocyte CLint [5]: 6.6 µL/min/1e6 cells
SMILES: CC[C@@H](CS(=O)(=O)C1COC1)N1C(=O)[C@@H](CC(=O)O)O[C@H](c2cccc(Cl)c2)[C@H]1c1ccc(Cl)cc1

hepatocyte CLint [5]: 1 µL/min/1e6 cells
hepatocyte CLint [8]: 3 µL/min/1e6 cells
hepatocyte CLint [9]: 6 µL/min/1e6 cells
hepatocyte CLint ([4]; read-out: CLH): 13 µL/min/1e6 cells
clearance [6]: 5.83 mL/min/kg
half-life [7]: 342 min
Drug metabolism [15]: metabolite_detected
Drug metabolism [16]: metabolite_detected
Drug metabolism [17]: metabolite_notdetected
Drug metabolism [18]: metabolite_detected
Drug metabolism [19]: metabolite_notdetected
SMILES: CC(C)(C)S(=O)(=O)C[C@H](C1CC1)N1C(=O)[C@@H](CC(=O)O)O[C@H](c2cccc(Cl)c2)[C@H]1c1ccc(Cl)cc1
Drug metabolism [10]: metabolite_detected
Drug metabolism [11]: metabolite_detected
Drug metabolism [12]: metabolite_notdetected
Drug metabolism [13]: metabolite_detected
Drug metabolism [14]: metabolite_notdetected
